Source: PubChem BioAssay (NCI)
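Cultured in 96-well plates, cells were exposed to test compound for 48 hours across five concentrations. GI50: concentration for 50% inhibition of growth. TGI: concentration producing complete growth inhibition.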

Key:
Assay in all cases: NCI tumour cell line growth inhibition, 48 h
[1] = test system: 786-0 renal
[2] = test system: A498 renal
[3] = test system: A549 NSCLC
[4] = test system: ACHN renal
[5] = test system: BT-549 breast
[6] = test system: CAKI-1 renal
[7] = test system: CCRF-CEM leukemia
[8] = test system: COLO 205 colon
[9] = test system: DU-145 prostate
[10] = test system: EKVX NSCLC
[11] = test system: HCC-2998 colon
[12] = test system: HCT-116 colon
[13] = test system: HCT-15 colon
[14] = test system: HL-60(TB) leukemia
[15] = test system: HOP-62 NSCLC
[16] = test system: HOP-92 NSCLC
[17] = test system: HS 578T breast
[18] = test system: HT29 colon
[19] = test system: IGROV1 ovarian
[20] = test system: K-562 leukemia
[21] = test system: KM12 colon
[22] = test system: LOX IMVI melanoma
[23] = test system: M14 melanoma
[24] = test system: MALME-3M melanoma
[25] = test system: MCF7 breast
[26] = test system: MDA-MB-231 breast
[27] = test system: MDA-MB-435
[28] = test system: MOLT-4 leukemia
[29] = test system: NCI-H226 lung
[30] = test system: NCI-H23 lung
[31] = test system: NCI-H460 lung
[32] = test system: NCI-H522 lung
[33] = test system: NCI/ADR-RES ovarian
[34] = test system: OVCAR-3 ovarian
[35] = test system: OVCAR-4 ovarian
[36] = test system: OVCAR-5 ovarian
[37] = test system: OVCAR-8 ovarian
[38] = test system: PC-3 prostate
[39] = test system: RPMI-8226 leukemia
[40] = test system: RXF 393 renal
[41] = test system: SF-268 CNS
[42] = test system: SF-295 CNS
[43] = test system: SF-539 CNS
[44] = test system: SK-MEL-2 melanoma
[45] = test system: SK-MEL-28 melanoma
[46] = test system: SK-MEL-5 melanoma
[47] = test system: SN12C renal
[48] = test system: SNB-19 CNS
[49] = test system: SNB-75 CNS
[50] = test system: SR leukemia
[51] = test system: SW-620 colon
[52] = test system: T-47D breast
[53] = test system: TK-10 renal
[54] = test system: U251 CNS
[55] = test system: UACC-257 melanoma
[56] = test system: UACC-62 melanoma
[57] = test system: UO-31 renal
[58] = test system: SK-OV-3 ovarian

O=C(Nc1ccc(Cl)cc1F)c1ccccc1O
GI50 [1]: 3.44 µM
TGI [1]: > 100 µM
GI50 [2]: 2.22 µM
TGI [2]: 6.29 µM
GI50 [3]: 3.6 µM
TGI [3]: > 100 µM
GI50 [4]: 2.36 µM
TGI [4]: 7.54 µM
GI50 [5]: 2.88 µM
TGI [5]: 9.88 µM
GI50 [6]: 2.37 µM
TGI [6]: 13.6 µM
GI50 [7]: 3.47 µM
TGI [7]: > 100 µM
GI50 [8]: 5.7 µM
TGI [8]: 41.2 µM
GI50 [9]: 4.13 µM
TGI [9]: > 100 µM
GI50 [10]: 1.96 µM
TGI [10]: 12.5 µM
GI50 [11]: 3.07 µM
TGI [11]: 13.1 µM
GI50 [12]: 3.15 µM
TGI [12]: 11.3 µM
GI50 [13]: 1.92 µM
TGI [13]: 14.2 µM
GI50 [14]: 2.53 µM
TGI [14]: 6.16 µM
GI50 [15]: 2.74 µM
TGI [15]: 21.7 µM
GI50 [16]: 1.42 µM
TGI [16]: 4.59 µM
GI50 [17]: 2.68 µM
TGI [17]: 23.2 µM
GI50 [18]: 5.32 µM
TGI [18]: 92.9 µM
GI50 [19]: 1.43 µM
TGI [19]: 64.3 µM
GI50 [20]: 3.5 µM
TGI [20]: > 100 µM
GI50 [21]: 2.97 µM
TGI [21]: 20.3 µM
GI50 [22]: 2.95 µM
TGI [22]: 10.4 µM
GI50 [23]: 3.45 µM
TGI [23]: 16.7 µM
GI50 [24]: 2.26 µM
TGI [24]: 8.8 µM
GI50 [25]: 1.5 µM
TGI [25]: 12.6 µM
GI50 [26]: 1.44 µM
TGI [26]: 3.79 µM
GI50 [27]: 3.37 µM
TGI [27]: 30.7 µM
GI50 [28]: 3.49 µM
TGI [28]: 13.5 µM
GI50 [29]: 2.23 µM
TGI [29]: 8.85 µM
GI50 [30]: 2.12 µM
TGI [30]: 6.13 µM
GI50 [31]: 3.21 µM
TGI [31]: 19.7 µM
GI50 [32]: 2.45 µM
TGI [32]: 30 µM
GI50 [33]: 2.44 µM
TGI [33]: 7.61 µM
GI50 [34]: 2.98 µM
TGI [34]: > 100 µM
GI50 [35]: 2.75 µM
TGI [35]: > 100 µM
GI50 [36]: 3.04 µM
TGI [36]: > 100 µM
GI50 [37]: 3.61 µM
TGI [37]: > 100 µM
GI50 [38]: 2.77 µM
TGI [38]: 10.9 µM
GI50 [39]: 1.97 µM
TGI [39]: 7.32 µM
GI50 [40]: 3.23 µM
TGI [40]: 11.2 µM
GI50 [41]: 3.63 µM
TGI [41]: > 100 µM
GI50 [42]: 2.35 µM
TGI [42]: 5.87 µM
GI50 [43]: 2.94 µM
TGI [43]: 18.5 µM
GI50 [44]: 2.3 µM
TGI [44]: 6.59 µM
GI50 [45]: 3.9 µM
TGI [45]: 21.6 µM
GI50 [46]: 1.69 µM
TGI [46]: 3.48 µM
GI50 [47]: 2.24 µM
TGI [47]: 8.71 µM
GI50 [48]: 3.23 µM
TGI [48]: > 100 µM
GI50 [49]: 3.26 µM
TGI [49]: > 100 µM
GI50 [50]: 5.73 µM
TGI [50]: > 100 µM
GI50 [51]: 3.26 µM
TGI [51]: > 100 µM
GI50 [52]: 2.49 µM
TGI [52]: > 100 µM
GI50 [53]: 4.54 µM
TGI [53]: 47.1 µM
GI50 [54]: 3.42 µM
TGI [54]: > 100 µM
GI50 [55]: 2.9 µM
TGI [55]: 8.86 µM
GI50 [56]: 2.08 µM
TGI [56]: 9.24 µM
GI50 [57]: 1.25 µM
TGI [57]: 6.65 µM

O=C(Cc1ccc(/C=C/C(=O)c2ncc[nH]2)cc1)Nc1cc(F)c(F)c(F)c1
GI50 [1]: 3.08 µM
TGI [1]: 6.32 µM
GI50 [2]: 4.34 µM
TGI [2]: 9.98 µM
GI50 [3]: 4.13 µM
TGI [3]: 17.8 µM
GI50 [4]: 3.89 µM
TGI [4]: 7.23 µM
GI50 [5]: 3.37 µM
TGI [5]: 6.74 µM
GI50 [6]: 3.68 µM
TGI [6]: 7.05 µM
GI50 [7]: 2.79 µM
TGI [7]: 13.9 µM
GI50 [8]: 4.08 µM
TGI [8]: 9.4 µM
GI50 [9]: 3.37 µM
TGI [9]: 7.08 µM
GI50 [10]: 8.45 µM
TGI [10]: > 25 µM
GI50 [11]: 3.57 µM
TGI [11]: 7.03 µM
GI50 [12]: 2.04 µM
TGI [12]: 5.38 µM
GI50 [13]: 2.39 µM
TGI [13]: 8.25 µM
GI50 [14]: 4.28 µM
TGI [14]: 11.2 µM
GI50 [15]: 3.71 µM
TGI [15]: 8.12 µM
GI50 [16]: 3.53 µM
TGI [16]: 8 µM
GI50 [17]: 7.3 µM
TGI [17]: > 25 µM
GI50 [18]: 0.861 µM
TGI [18]: 4.17 µM
GI50 [19]: 3.31 µM
TGI [19]: 9.68 µM
GI50 [20]: 2.31 µM
TGI [20]: > 25 µM
GI50 [21]: 2.81 µM
TGI [21]: 6.85 µM
GI50 [22]: 1.56 µM
TGI [22]: 4.81 µM
GI50 [23]: 4.06 µM
TGI [23]: 8.36 µM
GI50 [24]: 4.33 µM
TGI [24]: 12.2 µM
GI50 [25]: 2.38 µM
TGI [25]: 7.76 µM
GI50 [26]: 6.45 µM
TGI [26]: 21.1 µM
GI50 [27]: 4.25 µM
TGI [27]: 12.8 µM
GI50 [28]: 4.81 µM
TGI [28]: 16.1 µM
GI50 [29]: 4.83 µM
TGI [29]: 12.8 µM
GI50 [30]: 3.82 µM
TGI [30]: 9.11 µM
GI50 [31]: 3.31 µM
TGI [31]: 11.7 µM
GI50 [32]: 3.46 µM
TGI [32]: 8.01 µM
GI50 [33]: 7.26 µM
TGI [33]: > 25 µM
GI50 [34]: 2.81 µM
TGI [34]: 6.14 µM
GI50 [35]: 4.81 µM
TGI [35]: > 25 µM
GI50 [36]: 4.58 µM
TGI [36]: 8.84 µM
GI50 [37]: 5.58 µM
TGI [37]: > 25 µM
GI50 [38]: 3.8 µM
TGI [38]: 9.12 µM
GI50 [39]: 0.665 µM
TGI [39]: 1.79 µM
GI50 [40]: 3.06 µM
TGI [40]: 6.56 µM
GI50 [41]: 5.26 µM
TGI [41]: 20.1 µM
GI50 [42]: 6.82 µM
TGI [42]: 20.5 µM
GI50 [43]: 3.56 µM
TGI [43]: 6.95 µM
GI50 [44]: 5.15 µM
TGI [44]: 15.7 µM
GI50 [45]: 4.15 µM
TGI [45]: 8.09 µM
GI50 [46]: 4.18 µM
TGI [46]: 8.19 µM
GI50 [58]: 7.01 µM
TGI [58]: > 25 µM
GI50 [47]: 4.27 µM
TGI [47]: 11.1 µM
GI50 [48]: 4.07 µM
TGI [48]: 9.93 µM
GI50 [49]: 1.98 µM
TGI [49]: > 25 µM
GI50 [50]: 2.16 µM
TGI [50]: 13.3 µM
GI50 [51]: 1.88 µM
TGI [51]: 6.79 µM
GI50 [52]: 2.91 µM
TGI [52]: 10.5 µM
GI50 [53]: 4.51 µM
TGI [53]: 10.1 µM
GI50 [54]: 0.992 µM
TGI [54]: 3.8 µM
GI50 [55]: 4.49 µM
TGI [55]: 11.9 µM
GI50 [56]: 3.71 µM
TGI [56]: 8.91 µM
GI50 [57]: 3.36 µM
TGI [57]: 6.56 µM
